Experimental data published in US9981972B2, “N-hydroxy bicyclic hydantoin carbamates as tools for identification of serine hydrolase targets” (ABIDE THERAPEUTICS, INC., priority 2014, dated 2018).
Entries after “also recorded” stand apart in the source; their conditions may differ. Read-outs that look alike come from different tables or passages of the source.

Tests used:
[1] = molecular target: T1, PPT1 (Homo sapiens, UniProt P50897); experiment: In situ inhibition of hPPT1 in transfected HEK293T cells, competitive ABPP with Compound 39 probe; format: cell-based; design: expressed in transfected cells; host or cells: HEK293T
T1 sequence (P50897 28-306): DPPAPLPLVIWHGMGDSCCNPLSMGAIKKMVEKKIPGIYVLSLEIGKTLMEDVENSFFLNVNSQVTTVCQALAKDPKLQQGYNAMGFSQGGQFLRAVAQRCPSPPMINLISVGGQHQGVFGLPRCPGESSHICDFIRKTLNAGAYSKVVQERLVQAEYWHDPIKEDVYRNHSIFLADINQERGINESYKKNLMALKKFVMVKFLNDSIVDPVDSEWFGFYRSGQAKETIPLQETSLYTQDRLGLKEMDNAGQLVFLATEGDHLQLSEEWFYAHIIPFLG
Experimental: HEK293T cells were seeded at 2×10^5 per well on 6 well plates and grown for 48 h. They were then transfected with mABHD3 (pCMV-Sport6), hABHD4 (pcDNA3.1/myc-his), hPPT1 (pCMV6-XL5), or hPPT1 S115A (pCMV6-XL5), by incubating 0.5 μg of DNA with 3 μL of PEI MAX (1 mg/mL, Polysciences, Inc) in serum-free DMEM for 30 min, then adding them to cells. After 48 h cells were either treated with compound in situ, as described above, or harvested for in vitro studies. The […] PPT1 mutation was introduced using QuikChange II Site Directed Mutagenesis Kit (Agilent) with the following primers: […]
(§1) In situ inhibitor treatments of human cell lines were performed as described previously (Hsu et al., J Med Chem 56, 8270-8279, 2012). Briefly, PC3 or transfected HEK293T cells were grown to confluency in serum-containing media (RPMI or DMEM, respectively). The culture media was then removed and replaced with fresh media containing DMSO or inhibitor at the desired concentration and incubated for 4 hours in a tissue culture incubator (37° C., 5% CO2). Cells were then washed with PBS, harvested, washed with PBS once more, and lysed with a probe sonicator.
This possibility was explored by treating HEK293T cells transfected with human PPT1 (hPPT1) with Compound 37 (5 μM, 4 h pre-treatment) or DMSO followed by cell lysis and treatment with Compound 39 (5 μM, 1 h). A strong, but diffuse Compound 37-sensitive, Compound 39-labeled protein band was detected by gel-based ABPP in hPPT1-transfected, but not mock-transfected cell lysates (see FIG. 14), and this diffuse signal was compressed to a tight, faster-migrating band matching the predicted molecular weight of PPT1 following treatment with the glycosidase PNGaseF (see FIG. 14). Western blotting with an anti-PPT1 antibody confirmed a similar migration pattern for hPPT1 protein in transfected cell lysates (see FIG. 14, bottom panel).
A structurally diverse panel of N-hydroxy bicyclic hydantoin carbamates were assayed at 2 or 0.2 μM for in situ inhibition of hPPT1 in transfected HEK293T cells.

[2] = molecular target: T2, ABHD4 (Homo sapiens, UniProt Q8TB40); experiment: ABPP-SILAC, PC3 cells treated in situ; format: cell-based; design: endogenous in cells; host or cells: PC3; conditions: 4 h in situ; for inhibition of ABHD4 in PC3 cells: FP-biotin
T2 sequence (Q8TB40 1-342): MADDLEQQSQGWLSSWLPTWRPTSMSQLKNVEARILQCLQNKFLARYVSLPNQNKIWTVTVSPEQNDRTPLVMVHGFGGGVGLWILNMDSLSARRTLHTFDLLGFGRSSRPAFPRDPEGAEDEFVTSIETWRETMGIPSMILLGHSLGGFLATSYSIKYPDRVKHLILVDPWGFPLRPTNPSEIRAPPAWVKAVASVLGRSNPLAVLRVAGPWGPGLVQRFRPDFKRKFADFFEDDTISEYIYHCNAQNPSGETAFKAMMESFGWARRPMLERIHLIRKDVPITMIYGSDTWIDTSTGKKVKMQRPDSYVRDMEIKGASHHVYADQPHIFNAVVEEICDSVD
Experimental: as §1
(§2) The activity and selectivity of dual ABHD3/4 and ABHD4-preferring inhibitors in PC3 cells by ABPP-SILAC was assessed. Isotopically heavy and light PC3 cells were treated in situ with inhibitor (Compound 37 (1 μM) or Compound 38 (0.5 μM)) or DMSO for 4 h and then lysed and processed for ABPP-SILAC analysis.
(§3) To evaluate the broader selectivity of Compound 26 and Compound 34 across the SH class, heavy and light isotopically-labeled PC3 cells were treated with inhibitor [Compound 34 (1 μM); or Compound 26 (1 or 0.1 μM); 4 h) and DMSO, respectively, followed by ABPP-SILAC analysis with either the FP-biotin probe or the Compound 39 probe. […] Conversely, Compound 34 inhibited >90% of ABHD4 activity, as measured with either the FP-biotin probe or the Compound 39 probe, and cross-reacted with four additional targets—ABHD6, PAFAH2, PLA2G7, and PLA2G15.

[3] = molecular target: T2, ABHD4; experiment: Gel-based competitive ABPP, recombinant enzyme in transfected HEK293T cell lysates; format: biochemical; design: myc-his; expressed in transfected cells; host or cells: HEK293T, transient transfection, pcDNA3.1/myc-his; lysate used in vitro; conditions: recombinant
Procedure, shortened: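 Human ABHD4 was expressed by transient transfection in HEK293T cells, and lysates were combined with those expressing ABHD3. Inhibition was monitored by gel-based competitive activity-based protein profiling, with compound applied either in situ to cells or in vitro to lysates.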

[4] = test system: serine hydrolases in PC3 cells; experiment: ABPP-SILAC, PC3 cells treated in situ, other SH targets; format: cell-based, human; conditions: 4 h in situ
Experimental: as §1, §2
Isotopically heavy- and light-labeled PC3 cells were treated with Compound 37 (1 μM) or DMSO for 4 h, respectively, lysed, and then treated Compound 39 (5 μM, 1 h). […] Among the handful of additional SH targets of Compound 37 were ABHD6 and PLA2G7, which were expected based on our ABPP-SILAC studies with FP-biotin (see FIG. 9), and protein-palmitoyl thioesterase 1 (PPT1), which was inhibited by more than 90%. […] Accordingly, PPT1 was not detected in our previous ABPP-SILAC studies with FP-biotin (see FIG. 9). The selective enrichment of PPT1 by Compound 39 was confirmed by performing a probe-versus-probe ABPP-SILAC study, where heavy and light PC3 proteomes were treated with FP-biotin (2.5 μM, 1 h) and Compound 39 (5 μM, 1 h), respectively. PPT1, along with two additional SHs LIPA and DDHD2, were preferentially enriched by Compound 39 over FP-biotin, while most of the other SHs were more strongly enriched by FP-biotin (see FIG. 13). A handful of SHs corresponding mostly to enzymes that were identified in our ABPP-SILAC studies as targets of Compound 37 (see FIGS. 9 and 12), were equivalently enriched by Compound 39 and FP-biotin (see FIG. 13).
as §3

[5] = transfected HEK293T lysates, read-out: hABHD4 in vitro potency (IC50)
[6] = hPPT1-transfected HEK293T cells, in situ, read-out: hPPT1 (in situ), IC50

COc1ccc(N2CCN(C(=O)ON3C(=O)C4CN(Cc5ccc(Oc6ccccc6)cc5)CCN4C3=O)CC2)cc1 (centres unmarked) [Compound 37, 1,3-dioxo-7-(4-phenoxybenzyl)hexahydroimidazo[1,5-a]pyrazin-2(3H)-yl 4-(4-methoxyphenyl)piperazine-1-carboxylate]
hPPT1 (in situ), % @ 2 μM ([1]; 2 μM, hPPT1-transfected HEK293T cells, in situ): 100% @ 2 μM | reaction with hPPT1 / blockade of Compound 39 labeling ([1]; 5 μM, 4 h pre-treatment, hPPT1-transfected HEK293T cells): blocked; also recorded: reacted with PPT1 | inhibition of ABHD4 in PC3 cells ([2]; 1 μM): completely inhibited | preference ABHD4 over ABHD3 ([3]; combined HEK293T lysates, gel-based ABPP): preferentially inhibited ABHD4 over ABHD3 | IC50 [3, 5]: 100 nM | SHs inhibited in PC3 cells ([4]; 1 μM, Compound 39 probe): ABHD4; also recorded: ABHD6; also recorded: PLA2G7

COc1ccc(N2CCN(C(=O)ON3C(=O)C4CN(CC5CCN(Cc6ccccc6)CC5)CCN4C3=O)CC2)cc1 (centres unmarked) [Compound 26, 7-((1-benzylpiperidin-4-yl)methyl)-1,3-dioxohexahydroimidazo[1,5-a]pyrazin-2(3H)-yl 4-(4-methoxyphenyl)piperazine-1-carboxylate]
in situ inhibition of hPPT1 at 200 nM ([1]; 200 nM, transfected HEK293T cells): complete inhibition | IC50 ([1]; gel-based competitive ABPP, read-out: in situ IC50 for recombinant PPT1): 100 nM | cross-reacting SHs of >40 quantified ([4]; 1 or 0.1 μM, PC3): ABHD6 and CPVL

O=C(ON1C(=O)C2CN(C(=O)N3CCOCC3)CCN2C1=O)N1CCC(CCc2ccc(Cl)cc2)CC1 (centres unmarked) [Compound 1, 7-(morpholine-4-carbonyl)-1,3-dioxohexahydroimidazo[1,5-a]pyrazin-2(3H)-yl 4-(4-chloro-phenethyl)piperidine-1-carboxylate]
IC50 [1, 6]: 500 nM

O=C(ON1C(=O)C2CN(Cc3ccc(Oc4ccccc4)cc3)CCN2C1=O)N1CCOCC1 (centres unmarked) [Compound 34, 1,3-dioxo-7-(4-phenoxybenzyl)hexahydroimidazo[1,5-a]pyrazin-2(3H)-yl morpholine-4-carboxylate]
IC50 [1, 6]: 3900 nM | inhibition at 1 µM ([2]; PC-3, 1 μM, FP-biotin or Compound 39 probe): > 90% | IC50 [3, 5]: ~1000 nM | additional cross-reacting targets ([4]; 1 μM, PC3): ABHD6; also recorded: PAFAH2; also recorded: PLA2G7; also recorded: PLA2G15

O=C(ON1C(=O)C2CN(Cc3ccc(Oc4ccccc4)cc3)CCN2C1=O)N1CCC(c2ccccc2)CC1 (centres unmarked) [Compound 38, 1,3-dioxo-7-(4-phenoxybenzyl)hexahydroimidazo[1,5-a]pyrazin-2(3H)-yl 4-phenylpiperidine-1-carboxylate]
inhibition of ABHD4 in PC3 cells ([2]; 0.5 μM): inhibit both ABHD3 and ABHD4 | IC50 ([3]; combined HEK293T lysates, gel-based ABPP, read-out: ABHD4 IC50): 30 nM | additional targets among 44 serine hydrolases ([4]; 0.5 μM, PC3, FP-biotin): LIPE and PLA2G7 and ABHD6 and CES2
